Experiments:
[1] = test system: Beet Armyworm (Spodoptera exigua) ("BAW"); assay: Bioassay on Beet Armyworm (BAW), 128-well diet tray assay, percent mortality; type: in vivo; details: Spodoptera exigua, read-out: BAW
Text: (§1) Bioassays on Beet Armyworm (Spodoptera exigua) (“BAW”) and Cabbage Looper (Trichoplusia ni) (“CL”)
(§2) BAW has few effective parasites, diseases, or predators to lower its population. BAW infests many weeds, trees, grasses, legumes, and field crops. In various places, it is of economic concern upon asparagus, cotton, corn, soybeans, tobacco, alfalfa, sugar beets, peppers, tomatoes, potatoes, onions, peas, sunflowers, and citrus, among other plants. The Cabbage Looper is a member of the moth family Noctuidae. It is found throughout the world. It is attacks cabbage, cauliflower, broccoli, Brussel sprouts, tomatoes, cucumbers, potatoes, kale, turnips, mustard, peppers, eggplant, watermelons, melons, squash, cantaloupe, peas, beans, collards, lettuce, spinach, celery, parsley, beets, peas, alfalfa, soybeans, and cotton. This species is very destructive to plants due to its voracious consumption of leaves. In the case of cabbage, however, they feed not only on the wrapper leaves, but also may bore into the developing head. The larvae consume three times their weight in plant material daily. The feeding sites are marked by large accumulations of sticky, wet fecal material.
(§3) Consequently, because of the above factors control of these pests is important.
(§4) Certain molecules disclosed in this document were tested against BAW and CEW using procedures described in the following examples. In the reporting of the results, the “BAW & CL Rating Table” was used (See Table Section).
(§5) Trays were covered with a clear self-adhesive cover and held at 25° C., 14:10 light-dark for five to seven days. Percent mortality was recorded for the larvae in each well; activity in the eight wells was then averaged. The results are indicated in the table entitled “Table ABC: Biological Results” (See Table Section).

[2] = test system: Cabbage Looper (Trichoplusia ni) ("CL"); assay: Bioassay on Cabbage Looper (CL), 128-well diet tray assay, percent mortality; type: in vivo; details: Trichoplusia ni, read-out: CL
Text: as §1, §2, §3, §4
Bioassays on Cabbage Looper in CL
as §5

Structure (SMILES) | pest or weed control at 50 µg/cm2 [1] | pest or weed control at 50 µg/cm2 [2]
CC(C)c1ccccc1N1C(=O)CS/C1=N\C(=O)NCCc1cccc(-c2ncn(-c3ccc(OC(F)(F)F)cc3)n2)c1 [P76, (Z)-1-(3-(2-isopropylphenyl)-4-oxothiazolidin-2-ylidene)-3-(3-(1-(4-(trifluoromethoxy)phenyl)-1H-1,2,4-triazol-3-yl)phenethyl)urea] | 50 to 100% | 50 to 100%
CCCc1ccc(C)cc1N1C(=O)CS/C1=N\C(=O)NCCc1cccc(-c2ncn(-c3ccc(OC(F)(F)F)cc3)n2)c1 [P80, (Z)-1-(3-(5-methyl-2-propylphenyl)-4-oxothiazolidin-2-ylidene)-3-(3-(1-(4-(trifluoromethoxy)phenyl)-1H-1,2,4-triazol-3-yl)phenethyl)urea] | 50 to 100% | 50 to 100%
CCc1cccc(C)c1N1C(=O)CS/C1=N\C(=O)NCCc1cccc(-c2ncn(-c3ccc(OC(F)(F)F)cc3)n2)c1 [P83, (Z)-1-(3-(2-ethyl-6-methylphenyl)-4-oxothiazolidin-2-ylidene)-3-(3-(1-(4-(trifluoromethoxy)phenyl)-1H-1,2,4-triazol-3-yl)phenethyl)urea] | 50 to 100% | 50 to 100%
Cc1ccc(N2C(=O)CS/C2=N\C(=O)NCCc2cccc(-c3ncn(-c4ccc(OC(F)(F)F)cc4)n3)c2)c(C(C)C)c1 [P84, (Z)-1-(3-(2-isopropyl-4-methylphenyl)-4-oxothiazolidin-2-ylidene)-3-(3-(1-(4-(trifluoromethoxy)phenyl)-1H-1,2,4-triazol-3-yl)phenethyl)urea] | 50 to 100% | 50 to 100%
CC(C)c1cc(F)ccc1N1C(=O)CS/C1=N\C(=O)NCCc1cccc(-c2ncn(-c3ccc(OC(F)(F)F)cc3)n2)c1 [P85, (Z)-1-(3-(4-fluoro-2-isopropylphenyl)-4-oxothiazolidin-2-ylidene)-3-(3-(1-(4-(trifluoromethoxy)phenyl)-1H-1,2,4-triazol-3-yl)phenethyl)urea] | 50 to 100% | 50 to 100%
COc1ccc(N2C(=O)CS/C2=N\C(=O)NCCc2cccc(-c3ncn(-c4ccc(OC(F)(F)F)cc4)n3)c2)c(C)c1 [P87, (Z)-1-(3-(4-methoxy-2-methylphenyl)-4-oxothiazolidin-2-ylidene)-3-(3-(1-(4-(trifluoromethoxy)phenyl)-1H-1,2,4-triazol-3-yl)phenethyl)urea] | 50 to 100% | 50 to 100%
Cc1ccccc1N1C(=O)CS/C1=N\C(=O)NCCCc1ccc(-c2ncn(-c3ccc(OC(F)(F)F)cc3)n2)cc1 [P92, (Z)-1-(4-oxo-3-(o-tolyl)thiazolidin-2-ylidene)-3-(3-(4-(1-(4-(trifluoromethoxy)phenyl)-1H-1,2,4-triazol-3-yl)phenyl)propyl)urea] | 50 to 100% | 50 to 100%
CCc1ccccc1N1C(=O)CS/C1=N\C(=O)NCCCc1ccc(-c2ncn(-c3ccc(OC(F)(F)F)cc3)n2)cc1 [P93, (Z)-1-(3-(2-ethylphenyl)-4-oxothiazolidin-2-ylidene)-3-(3-(4-(1-(4-(trifluoromethoxy)phenyl)-1H-1,2,4-triazol-3-yl)phenyl)propyl)urea] | 50 to 100% | 50 to 100%
CC(C)c1ccccc1N1C(=O)CS/C1=N\C(=O)NCCCc1ccc(-c2ncn(-c3ccc(OC(F)(F)F)cc3)n2)cc1 [P94, (Z)-1-(3-(2-isopropylphenyl)-4-oxothiazolidin-2-ylidene)-3-(3-(4-(1-(4-(trifluoromethoxy)phenyl)-1H-1,2,4-triazol-3-yl)phenyl)propyl)urea] | 50 to 100% | 50 to 100%
CCCc1ccc(C)cc1N1C(=O)CS/C1=N\C(=O)NCCCc1ccc(-c2ncn(-c3ccc(OC(F)(F)F)cc3)n2)cc1 [P99, (Z)-1-(3-(5-methyl-2-propylphenyl)-4-oxothiazolidin-2-ylidene)-3-(3-(4-(1-(4-(trifluoromethoxy)phenyl)-1H-1,2,4-triazol-3-yl)phenyl)propyl)urea] | 50 to 100% | 50 to 100%
CCc1cccc(C)c1N1C(=O)CS/C1=N\C(=O)NCCCc1ccc(-c2ncn(-c3ccc(OC(F)(F)F)cc3)n2)cc1 [P101, (Z)-1-(3-(2-ethyl-6-methylphenyl)-4-oxothiazolidin-2-ylidene)-3-(3-(4-(1-(4-(trifluoromethoxy)phenyl)-1H-1,2,4-triazol-3-yl)phenyl)propyl)urea] | 0 to 50% | 50 to 100%
Cc1ccc(N2C(=O)CS/C2=N\C(=O)NCCCc2ccc(-c3ncn(-c4ccc(OC(F)(F)F)cc4)n3)cc2)c(C(C)C)c1 [P102, (Z)-1-(3-(2-isopropyl-4-methylphenyl)-4-oxothiazolidin-2-ylidene)-3-(3-(4-(1-(4-(trifluoromethoxy)phenyl)-1H-1,2,4-triazol-3-yl)phenyl)propyl)urea] | 50 to 100% | 50 to 100%
CC(C)c1cc(F)ccc1N1C(=O)CS/C1=N\C(=O)NCCCc1ccc(-c2ncn(-c3ccc(OC(F)(F)F)cc3)n2)cc1 [P103, (Z)-1-(3-(4-fluoro-2-isopropylphenyl)-4-oxothiazolidin-2-ylidene)-3-(3-(4-(1-(4-(trifluoromethoxy)phenyl)-1H-1,2,4-triazol-3-yl)phenyl)propyl)urea] | 50 to 100% | 50 to 100%
COc1ccc(N2C(=O)CS/C2=N\C(=O)NCCCc2ccc(-c3ncn(-c4ccc(OC(F)(F)F)cc4)n3)cc2)c(C)c1 [P105, (Z)-1-(3-(4-methoxy-2-methylphenyl)-4-oxothiazolidin-2-ylidene)-3-(3-(4-(1-(4-(trifluoromethoxy)phenyl)-1H-1,2,4-triazol-3-yl)phenyl)propyl)urea] | 50 to 100% | 50 to 100%
Cc1ccccc1N1C(=O)CS/C1=N\C(=O)NCCCc1cccc(-c2ncn(-c3ccc(OC(F)(F)F)cc3)n2)c1 [P118, (Z)-1-(4-oxo-3-(o-tolyl)thiazolidin-2-ylidene)-3-(3-(3-(1-(4-(trifluoromethoxy)phenyl)-1H-1,2,4-triazol-3-yl)phenyl)propyl)urea] | 50 to 100% | 50 to 100%
CCc1ccccc1N1C(=O)CS/C1=N\C(=O)NCCCc1cccc(-c2ncn(-c3ccc(OC(F)(F)F)cc3)n2)c1 [P119, (Z)-1-(3-(2-ethylphenyl)-4-oxothiazolidin-2-ylidene)-3-(3-(3-(1-(4-(trifluoromethoxy)phenyl)-1H-1,2,4-triazol-3-yl)phenyl)propyl)urea] | 50 to 100% | 50 to 100%
CC(C)c1ccccc1N1C(=O)CS/C1=N\C(=O)NCCCc1cccc(-c2ncn(-c3ccc(OC(F)(F)F)cc3)n2)c1 [P120, (Z)-1-(3-(2-isopropylphenyl)-4-oxothiazolidin-2-ylidene)-3-(3-(3-(1-(4-(trifluoromethoxy)phenyl)-1H-1,2,4-triazol-3-yl)phenyl)propyl)urea] | 50 to 100% | 50 to 100%
Cc1ccc(C(C)C)c(N2C(=O)CS/C2=N\C(=O)NCCCc2cccc(-c3ncn(-c4ccc(OC(F)(F)F)cc4)n3)c2)c1 [P124, (Z)-1-(3-(2-isopropyl-5-methylphenyl)-4-oxothiazolidin-2-ylidene)-3-(3-(3-(1-(4-(trifluoromethoxy)phenyl)-1H-1,2,4-triazol-3-yl)phenyl)propyl)urea] | 50 to 100% | 50 to 100%
CCCc1ccc(C)cc1N1C(=O)CS/C1=N\C(=O)NCCCc1cccc(-c2ncn(-c3ccc(OC(F)(F)F)cc3)n2)c1 [P125, (Z)-1-(3-(5-methyl-2-propylphenyl)-4-oxothiazolidin-2-ylidene)-3-(3-(3-(1-(4-(trifluoromethoxy)phenyl)-1H-1,2,4-triazol-3-yl)phenyl)propyl)urea] | 50 to 100% | 50 to 100%
CCc1cccc(C)c1N1C(=O)CS/C1=N\C(=O)NCCCc1cccc(-c2ncn(-c3ccc(OC(F)(F)F)cc3)n2)c1 [P127, (Z)-1-(3-(2-ethyl-6-methylphenyl)-4-oxothiazolidin-2-ylidene)-3-(3-(3-(1-(4-(trifluoromethoxy)phenyl)-1H-1,2,4-triazol-3-yl)phenyl)propyl)urea] | 50 to 100% | 50 to 100%
Cc1ccc(N2C(=O)CS/C2=N\C(=O)NCCCc2cccc(-c3ncn(-c4ccc(OC(F)(F)F)cc4)n3)c2)c(C(C)C)c1 [P128, (Z)-1-(3-(2-isopropyl-4-methylphenyl)-4-oxothiazolidin-2-ylidene)-3-(3-(3-(1-(4-(trifluoromethoxy)phenyl)-1H-1,2,4-triazol-3-yl)phenyl)propyl)urea] | 50 to 100% | 50 to 100%
CC(C)c1cc(F)ccc1N1C(=O)CS/C1=N\C(=O)NCCCc1cccc(-c2ncn(-c3ccc(OC(F)(F)F)cc3)n2)c1 [P129, (Z)-1-(3-(4-fluoro-2-isopropylphenyl)-4-oxothiazolidin-2-ylidene)-3-(3-(3-(1-(4-(trifluoromethoxy)phenyl)-1H-1,2,4-triazol-3-yl)phenyl)propyl)urea] | 50 to 100% | 50 to 100%
